Assay results reported in patent publication US5627193A, “Quinoline-4-carbonylguanidine derivatives, process for producing the same and pharmaceutical preparations containing the compounds” (Mitsui Toatsu Chemicals, Inc., priority 1995, dated 1997).

Assays:
[1] = biological target: T1, NHE (Na^+ /H^+ exchanger) (Rattus norvegicus, UniProt P26431); assay: NHE inhibitory activity (recovery of the pH in cells after acid load, BCECF, rat mesenteric artery); assay type: cell-based; conditions: read-out: Percent NHE inhibition (%); for inhibition at 0.1 µM: Conc. 0.1 μM; for inhibition at 1 µM: Conc. 1 μM
T1 construct: A rat mesenteric artery was isolated; from tissue; host or cells: isolated rat mesenteric artery segments
Experimental: The NHE inhibitory activity was measured by the following method using a pH in cells as an index.
A rat mesenteric artery was isolated, and was loaded with a pH-sensitive dye BCECF. Subsequently, the tissue segments were mounted in a bath of an intracellular ion concentration measurement device (CAF-110, manufactured by Japan Spectral Co., Ltd.). The pH in cells was measured in terms of a ratio of fluorescent intensities through 2-wavelength excitation of 495 nm (pH-sensitive wavelength)/450 nm (pH-non-sensitive wavelength).
The pH in cells was shifted into acid through pretreatment with 20 mM ammonium chloride to activate NHE. At this time, when Na^+ ions were absent in an external solution, the intracellular acidosis was maintained. When Na^+ ions were present in an external solution, the pH in cells was recovered to a control value. This recovery of the pH in cells was ascribable to the activation of NHE. The NHE inhibitory activity of the medication was examined depending on whether or not this recovery was suppressed. The percent NHE inhibition was calculated from a change in pH (ΔpH) measured by the above-mentioned method using the following formula.
Percent NHE inhibition (%)={1-ΔpH (in the presence of a medication)/ΔpH (in the absence of a medication)}×100
This test was conducted by the method of C. D. Foster et al. [Am. J. Physiol., 262, 31, H1651-H1655 (1992)]. For comparison, the test was conducted with respect to guanidinocarbonylisoquinoline derivatives described in JP A 6-211799 (Family: EP590455).

rat = assay: Effect on ischemic arrhythmia in the rat (left coronary artery ligated for 30 minutes); assay type: in vivo; conditions: 1 mg/kg i.v., five minutes before the ligation; rats with arrhythmia / rats
Experimental: A rat was anesthetized with pentobarbital, and the left chest was opened under artificial respiration. Then, the left coronary artery was ligated for 30 minutes. The effect of the test compound on ischemic arrhythmia was examined. The test agent was administered intravenously (i.v.) five minutes before the ligation. The arrhythmias were evaluated according to the guidelines of the Lambeth conventions [Cardiovasc. Res., 22, 447-455 (1988)].

[2] = Toxicity test, mortality of mice after 24 hours; conditions: mouse, in vivo, iv, 100 mg/kg (i.v.), 3 mice
Experimental: The test compound was administered to a ddy-strain male mouse, and the toxicity was examined. The test compound was administered intravenously (i.v.) in a dose of 100 mg/kg, and the toxicity was evaluated in terms of mortality of mice after 24 hours of the administration (number of specimens: one group consisting of 3 mice).

cardiac hypertrophy = conditions: Circulation, 86 (Suppl. I) I-177 (1992); cited from earlier work

T1 sequence (P26431 whole entry): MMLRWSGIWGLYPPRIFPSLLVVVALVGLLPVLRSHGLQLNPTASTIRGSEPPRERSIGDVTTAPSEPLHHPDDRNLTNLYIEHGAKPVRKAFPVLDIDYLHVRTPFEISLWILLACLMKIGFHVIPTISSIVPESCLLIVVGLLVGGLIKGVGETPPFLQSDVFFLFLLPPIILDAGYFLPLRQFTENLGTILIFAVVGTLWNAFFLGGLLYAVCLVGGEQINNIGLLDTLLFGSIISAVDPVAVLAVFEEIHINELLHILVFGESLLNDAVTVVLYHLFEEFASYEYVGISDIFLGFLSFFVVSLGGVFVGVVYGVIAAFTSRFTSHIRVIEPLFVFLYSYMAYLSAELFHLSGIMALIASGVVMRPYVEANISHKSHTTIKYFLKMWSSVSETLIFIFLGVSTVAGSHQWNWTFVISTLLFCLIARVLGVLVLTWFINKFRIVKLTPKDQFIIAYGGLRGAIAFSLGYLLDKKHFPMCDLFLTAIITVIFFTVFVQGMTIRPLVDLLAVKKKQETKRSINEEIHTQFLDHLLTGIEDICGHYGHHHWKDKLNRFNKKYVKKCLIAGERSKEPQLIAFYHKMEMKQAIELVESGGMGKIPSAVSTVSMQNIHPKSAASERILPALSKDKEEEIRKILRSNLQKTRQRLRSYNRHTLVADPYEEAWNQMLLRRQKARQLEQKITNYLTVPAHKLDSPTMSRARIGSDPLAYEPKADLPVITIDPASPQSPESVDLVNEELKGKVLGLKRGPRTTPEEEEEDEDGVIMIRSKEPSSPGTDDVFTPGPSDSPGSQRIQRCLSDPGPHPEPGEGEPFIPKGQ
T1 sequence (P61023 2-195 partner limits assumed): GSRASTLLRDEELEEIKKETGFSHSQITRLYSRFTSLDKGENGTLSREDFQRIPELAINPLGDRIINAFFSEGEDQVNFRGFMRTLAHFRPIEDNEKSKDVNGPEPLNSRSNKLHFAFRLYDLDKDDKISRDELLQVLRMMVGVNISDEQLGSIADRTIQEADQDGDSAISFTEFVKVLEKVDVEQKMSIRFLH

| SMILES | inhibition at 0.1 µM [1] [%] | inhibition at 1 µM [1] [%] | Incidence of arrhythmia, VF (ventricular fibrillation) (rat) | Incidence of arrhythmia, VT (ventricular tachycardia) (rat) | mortality at 24 h [2] [%] | suppression of cardiac hypertrophy (cardiac hypertrophy) |
| --- | --- | --- | --- | --- | --- | --- |
| NC(N)=NC(=O)c1cc(-c2ccccc2)nc2ccccc12 [Example 1, 2-phenylquinoline-4-carbonylguanidine] | 5.2 | 52.8 |  |  |  |  |
| Cc1ccc(-c2cc(C(=O)N=C(N)N)c3ccccc3n2)cc1 [Example 2, 2-(4'-methylphenyl)quinoline-4-carbonylguanidine] | 10.6 | 41.4 |  |  |  |  |
| Cc1cccc(-c2cc(C(=O)N=C(N)N)c3ccccc3n2)c1 [Example 3, 2-(3'-methylphenyl)quinoline-4-carbonylguanidine] | 21.2 | 59.8 |  |  |  |  |
| Cc1ccccc1-c1cc(C(=O)N=C(N)N)c2ccccc2n1 [Example 4, 2-(2'-methylphenyl)quinoline-4-carbonylguanidine] | 49.2 | 65.6 |  |  |  |  |
| CC(C)c1ccccc1-c1cc(C(=O)N=C(N)N)c2ccccc2n1 [Example 5, 2-(2'-isopropylphenyl)quinoline-4-carbonylguanidine] | 29.3 | 42.3 |  |  |  |  |
| Cc1ccc(-c2cc(C(=O)N=C(N)N)c3ccccc3n2)c(C)c1 [Example 6, 2-(2',4'-dimethylphenyl)quinoline-4-carbonylguanidine] | 36.4 | 55.3 |  |  |  |  |
| Cc1ccc(-c2cc(C(=O)N=C(N)N)c3ccccc3n2)cc1C [Example 7, 2-(3',4'-dimethylphenyl)quinoline-4-carbonylguanidine] | 33.1 | 38.8 |  |  |  |  |
| Cc1cc(C)c(-c2cc(C(=O)N=C(N)N)c3ccccc3n2)c(C)c1 [Example 8, 2-(2',4',6'-trimethylphenyl)quinoline-4-carbonylguanidine] | 23.7 | 36.3 |  |  |  |  |
| NC(N)=NC(=O)c1cc(-c2ccccc2C(F)(F)F)nc2ccccc12 [Example 11, 2-(2'-trifluoromethylphenyl)quinoline-4-carbonylguanidine] | 22.7 | 46.1 |  |  |  |  |
| NC(N)=NC(=O)c1cc(-c2ccc(F)cc2)nc2ccccc12 [Example 13, 2-(4'-fluorophenyl)quinoline-4-carbonylguanidine] | 14.4 | 39.8 |  |  |  |  |
| NC(N)=NC(=O)c1cc(-c2ccccc2Cl)nc2ccccc12 [Example 14, 2-(2'-chlorophenyl)quinoline-4-carbonylguanidine] | 28.8 | 34.3 |  |  |  |  |
| NC(N)=NC(=O)c1cc(-c2cccc([N+](=O)[O-])c2)nc2ccccc12 [Example 19, 2-(3'-nitrophenyl)quinoline-4-carbonylguanidine] | 22.3 | 35.6 |  |  |  |  |
| NC(N)=NC(=O)c1cc(-c2cccc(N)c2)nc2ccccc12 [Example 20, 2-(3'-aminophenyl)quinoline-4-carbonylguanidine] | 36.2 | 42.2 |  |  |  |  |
| Cc1c(-c2ccccc2)nc2ccccc2c1C(=O)N=C(N)N [Example 21, 2-phenyl-3-methylquinoline-4-carbonylguanidine] | 1.5 | 45 |  |  |  |  |
| Cc1ccc2nc(-c3ccccc3)cc(C(=O)N=C(N)N)c2c1 [Example 22, 2-phenyl-6-methylquinoline-4-carbonylguanidine] | 28.9 | 57.9 |  |  |  |  |
| Cc1ccc2c(C(=O)N=C(N)N)cc(-c3ccccc3)nc2c1 [Example 23, 2-phenyl-7-methylquinoline-4-carbonylguanidine] | 2.8 | 49.8 |  |  |  |  |
| Cc1cccc2c(C(=O)N=C(N)N)cc(-c3ccccc3)nc12 [Example 24, 2-phenyl-8-methylquinoline-4-carbonylguanidine] | 8.1 | 50 |  |  |  |  |
| NC(N)=NC(=O)c1cc(-c2ccccc2)nc2cccc(Cl)c12 [Example 28, 2-phenyl-5-chloroquinoline-4-carbonylguanidine] | 33.7 | 63.3 |  |  |  |  |

| SMILES | inhibition at 0.1 µM [1] [%] | inhibition at 1 µM [1] [%] | Incidence of arrhythmia, VF (ventricular fibrillation) (rat) | Incidence of arrhythmia, VT (ventricular tachycardia) (rat) | mortality at 24 h [2] [%] | suppression of cardiac hypertrophy (cardiac hypertrophy) |
| --- | --- | --- | --- | --- | --- | --- |
| NC(N)=NC(=O)c1cc(-c2ccccc2)nc2ccc(Cl)cc12 [Example 29, 2-phenyl-6-chloroquinoline-4-carbonylguanidine] | 0 | 38.6 |  |  |  |  |
| NC(N)=NC(=O)c1cc(-c2ccccc2)nc2c(Cl)cccc12 [Example 31, 2-phenyl-8-chloroquinoline-4-carbonylguanidine] | 12 | 57 |  |  |  |  |
| Cc1cc(Cl)cc2c(C(=O)N=C(N)N)cc(-c3ccccc3)nc12 [Example 32, 2-phenyl-6-chloro-8-methylquinoline-4-carbonylguanidine] | 28.6 | 35.7 |  |  |  |  |
| COc1ccc2c(C(=O)N=C(N)N)cc(-c3ccccc3)nc2c1 [Example 34, 2-phenyl-7-methoxyquinoline-4-carbonylguanidine] | 29.8 | 53 |  |  |  |  |
| COc1cccc2c(C(=O)N=C(N)N)cc(-c3ccccc3)nc12 [Example 35, 2-phenyl-8-methoxyquinoline-4-carbonylguanidine] | 47.4 | 63.6 |  |  |  |  |
| COc1cc(OC)c2c(C(=O)N=C(N)N)cc(-c3ccccc3)nc2c1 [Example 36, 2-phenyl-5,7-dimethoxyquinoline-4-carbonylguanidine] | 53.2 | 69.9 | 0/4 | 2/4 |  |  |
| COc1cc(OC)c2c(C(=O)N=C(N)N)cc(-c3ccccc3C)nc2c1 [Example 37, 2-(2'-methylphenyl)-5,7-dimethoxyquinoline-4-carbonylguanidine] | 70.8 | 84.2 | 0/5 | 3/5 |  |  |
| COc1cc2nc(-c3ccccc3C)cc(C(=O)N=C(N)N)c2cc1OC [Example 39, 2-(2'-methylphenyl)-6,7-dimethoxyquinoline-4-carbonylguanidine] | 3.4 | 41.5 |  |  |  |  |
| COc1cc(OC)c2nc(-c3ccccc3)cc(C(=O)N=C(N)N)c2c1 [Example 40, 2-phenyl-6,8-dimethoxyquinoline-4-carbonylguanidine] | 18.3 | 31 |  |  |  |  |
| COc1ccc(OC)c2c(C(=O)N=C(N)N)cc(-c3ccccc3C)nc12 [Example 42, 2-(2'-methylphenyl)-5,8-dimethoxyquinoline-4-carbonylguanidine] | 72.7 | 89.1 | 0/4 | 2/4 | 0 |  |
| COc1ccc2c(C(=O)N=C(N)N)cc(-c3ccccc3C)nc2c1OC [Example 43, 2-(2'-methylphenyl)-7,8-dimethoxyquinoline-4-carbonylguanidine] | 28 | 37.6 |  |  |  |  |
| COCCOc1cccc2c(C(=O)N=C(N)N)cc(-c3ccccc3)nc12 [Example 44, 2-phenyl-8-methoxyethyloxyquinoline-4-carbonylguanidine] | 28.4 | 62.9 |  |  |  |  |
| COCOc1ccc2c(C(=O)N=C(N)N)cc(-c3ccccc3C)nc2c1 [Example 45, 2-(2'-methylphenyl)-7-methoxymethyloxyquinoline-4-carbonylguanidine] | 35 | 46.5 |  |  |  |  |
| Cc1ccccc1-c1cc(C(=O)N=C(N)N)c2ccc(O)cc2n1 [Example 46, 2-(2'-methylphenyl)-7-hydroxyquinoline-4-carbonylguanidine] | 39.3 | 48.8 |  |  |  |  |
| NC(N)=NC(=O)c1cc(-c2ccccc2)nc2c(N)cccc12 [Example 48, 2-phenyl-8-aminoquinoline-4-carbonylguanidine] | 30.6 | 41.7 |  |  |  |  |
| CC(=O)Nc1cccc2c(C(=O)N=C(N)N)cc(-c3ccccc3)nc12 [Example 49, 2-phenyl-8-acetylaminoquinoline-4-carbonylguanidine] | 20.8 | 51.2 |  |  |  |  |
| CS(=O)(=O)Nc1cccc2c(C(=O)N=C(N)N)cc(-c3ccccc3)nc12 [Example 50, 2-phenyl-8-methanesulfonylaminoquinoline-4-carbonylguanidine] | 46.2 | 66.2 |  |  |  |  |
| N=C(N)NC(=O)c1nc(Cl)c(N)nc1N [amiloride] |  |  |  |  |  | suppresses cardiac hypertrophy |
